In publication PMC11992225, “Antibacterial compounds against non-growing and intracellular bacteria” (npj Antimicrobials and Resistance, 2025):
Converted amounts (≈) assume the structure as drawn. Read-outs that look alike come from different tables or passages of the source.

How the values were obtained:
[1] = system: non-growing S. aureus DSM2569; assay: Dilution-regrowth assay (OD600, start-growth-time) on stationary-phase S. aureus; assay type: cell-based, Staphylococcus aureus; conditions: S. aureus; for EC50: regrowth delay of non-growing bacteria, 1:4 CA-MHB pH 7.4, 24 h treatment, OD600 8 h after dilution
Experimental: The cultures were grown and treated for 24 h in 1:4 CA-MHB (pH 7.4).
This approach allowed us to capture the time when cultures reached a threshold optical density (start-growth-time, SGT[15]).
The cultures were incubated for 24 h in non-baffled Erlenmeyer flasks at 37 °C with shaking at 200 rpm.
For P. aeruginosa and S. aureus, dose–response analysis was conducted in 96-well plates with a 200 μl assay volume, following the procedure used for screening assay validation experiments. […] Stock solutions were prepared and stored according to the manufacturers’ instructions, then diluted in 10% DMSO before use. Cultures were incubated for 24 h in 1:4 diluted CA-MHB medium under the same conditions used for UPEC cultivation. In preliminary experiments, each compound was tested at a concentration of 20 μM in the dilution-regrowth assay with 4 technical replicates. Regrowth was monitored using a microplate reader at 37 °C with continuous shaking, and OD600 was recorded every 20 min. The time at which OD600 exceeded the threshold of 0.12 was recorded as the Start_Growth-Time.
Statistical significance of the drug effects was assessed using a one-way ANOVA followed by Dunnett’s test, comparing each treatment to the drug-free control. Statistical significance of the differences in chemical characteristics between the hit compounds and the Prestwick library was assessed using a Mann–Whitney test. Statistical significance was set at P ≤ 0.05. A five-parameter logistic equation was used for asymmetric sigmoidal curve fitting and for EC50 and IC50 determination. The Venn diagram in Fig. 1F was prepared using BioVenn web application. Characteristics of the chemical and physical properties of Prestwick library compounds were obtained from Supplementary Table S1 from reference. Characteristics of the hit compounds not included in the Prestwick library were retrieved from the PubChem database.

non-growing UPEC CFT073 = assay: Dilution-regrowth assay (screen, hit validation, dose-response) on stationary-phase UPEC; assay type: cell-based, Escherichia coli; conditions: for EC50: Escherichia coli; for activity against non-growing UPEC in LPM (pH 5.5) compared to 1:4 CA-MHB (pH 7.4): regrowth delay and killing, Figs. 2 and 3
Method in brief: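 Regrowth (OD600 after 6 h, 37 °C) of diluted non-growing CFT073, following 24 h compound treatment of 24 h stationary cultures, defines activity relative to untreated control. Screen at 20 µM, validation at 20, 10, 5 µM (duplicates), dose–response in three biological replicates fitted by five-parameter logistic.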

P. aeruginosa DSM1117 = assay: MIC, standard microdilution assay, growing P. aeruginosa; assay type: cell-based, Pseudomonas aeruginosa; conditions: Pseudomonas aeruginosa, DSM1117, P. aeruginosa
Method in brief: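 MICs come from microdilution in CA-MHB/40 mM HEPES pH 7.4 for the UPEC, Pseudomonas and Staphylococcus strains, and in TSB for Shigella. UPEC also tested in LPM/30 mM MES pH 5.5.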

[2] = E. coli in 1:4 CA-MHB (pH 7.4), drug concentration 0.25
[3] = E. coli in 1:4 CA-MHB (pH 7.4), drug concentration 0.5
[4] = E. coli in 1:4 CA-MHB (pH 7.4), drug concentration 1
[5] = E. coli in 1:4 CA-MHB (pH 7.4), drug concentration 2.5
[6] = E. coli in 1:4 CA-MHB (pH 7.4), drug concentration 5
[7] = E. coli in 1:4 CA-MHB (pH 7.4), drug concentration 10
[8] = E. coli in 1:4 CA-MHB (pH 7.4), drug concentration 30
[9] = E. coli in LPM (pH 5.5), drug concentration 0.25
[10] = E. coli in LPM (pH 5.5), drug concentration 0.5
[11] = E. coli in LPM (pH 5.5), drug concentration 1
[12] = E. coli in LPM (pH 5.5), drug concentration 2.5
[13] = E. coli in LPM (pH 5.5), drug concentration 5
[14] = E. coli in LPM (pH 5.5), drug concentration 10
[15] = E. coli in LPM (pH 5.5), drug concentration 30
[16] = E. coli, pH 7.4, regrowth delay of non-growing bacteria, 1:4 CA-MHB, 24 h treatment, OD600 6 h after 2500-fold dilution, read-out: EC50
[17] = 1:4 diluted CA-MHB pH 7.4, read-out: MIC (μM) 1:4 CA-MHB
[18] = CA-MHB pH 7.4, read-out: MIC (μM) CA-MHB

Molecule | Regrowth, OD600 at 6h or 8h after dilution into drug-free medium (average) ([1]; drug concentration 0.1) | Regrowth, OD600 at 6h or 8h after dilution into drug-free medium (average) ([1]; drug concentration 0.5) | Regrowth, OD600 at 6h or 8h after dilution into drug-free medium (average) ([1]; drug concentration 2.5) | Regrowth, OD600 at 6h or 8h after dilution into drug-free medium (average) ([1]; drug concentration 10) | Regrowth, OD600 at 6h or 8h after dilution into drug-free medium (average) (non-growing UPEC CFT073; [2]) | Regrowth, OD600 at 6h or 8h after dilution into drug-free medium (average) (non-growing UPEC CFT073; [3]) | Regrowth, OD600 at 6h or 8h after dilution into drug-free medium (average) (non-growing UPEC CFT073; [4]) | Regrowth, OD600 at 6h or 8h after dilution into drug-free medium (average) (non-growing UPEC CFT073; [5]) | Regrowth, OD600 at 6h or 8h after dilution into drug-free medium (average) (non-growing UPEC CFT073; [6]) | Regrowth, OD600 at 6h or 8h after dilution into drug-free medium (average) (non-growing UPEC CFT073; [7]) | Regrowth, OD600 at 6h or 8h after dilution into drug-free medium (average) (non-growing UPEC CFT073; [8]) | Regrowth, OD600 at 6h or 8h after dilution into drug-free medium (average) (non-growing UPEC CFT073; [9]) | Regrowth, OD600 at 6h or 8h after dilution into drug-free medium (average) (non-growing UPEC CFT073; [10]) | Regrowth, OD600 at 6h or 8h after dilution into drug-free medium (average) (non-growing UPEC CFT073; [11]) | Regrowth, OD600 at 6h or 8h after dilution into drug-free medium (average) (non-growing UPEC CFT073; [12]) | Regrowth, OD600 at 6h or 8h after dilution into drug-free medium (average) (non-growing UPEC CFT073; [13]) | Regrowth, OD600 at 6h or 8h after dilution into drug-free medium (average) (non-growing UPEC CFT073; [14]) | EC50 (non-growing UPEC CFT073; [16]) [µM] | MIC (P. aeruginosa DSM1117; [17]) [µM] | MIC (P. aeruginosa DSM1117; [18]) [µM] | also measured
CCCCC(CC)CNC(=N)NC(=N)NCCCCCCNC(=N)NC(=N)NCC(CC)CCCC (centres unmarked) [Alexidine] | 0.539 | 0.527 | 0.433 | 0.087 | 0.643 | 0.630 | 0.631 | 0.636 | 0.622 | 0.568 | 0.074 | 0.604 | 0.591 | 0.602 | 0.604 | 0.576 | 0.067 | 15.6 | – | – | EC50 ([1]; Staphylococcus aureus, DSM2569, read-out: EC50): 3.28 µM; Regrowth, OD600 at 6h or 8h after dilution into drug-free medium (average) (non-growing UPEC CFT073; [15]): 0.069; EC50 (non-growing UPEC CFT073; 1:4 CA-MHB pH 7.4 (black curve), medium assigned by comparison with Dataset 1, read-out: EC50 (regrowth inhibition curve, Fig. S4)): 23.4 µM; EC50 (non-growing UPEC CFT073; LPM pH 5.5 (red curve), medium assigned by comparison with Dataset 1, read-out: EC50 (regrowth inhibition curve, Fig. S4)): 7.18 µM; activity against non-growing UPEC in LPM (pH 5.5) compared to 1:4 CA-MHB (pH 7.4) (non-growing UPEC CFT073): potentiated by the low pH
CN1C[C@@H]2C[C@H]1CN2c1cc2c(cc1F)c(=O)c(C(=O)O)cn2C1CC1 [Danofloxacin] | – | – | – | – | – | – | – | – | – | – | – | – | – | – | – | – | – | 2.16 | 4 (≈ 1.43 µg/mL) | 4 (≈ 1.43 µg/mL) | –
CCN1CCN(c2cc3c(cc2F)c(=O)c(C(=O)O)cn3C2CC2)CC1 [Enrofloxacin] | – | – | – | – | – | – | – | – | – | – | – | – | – | – | – | – | – | 5.17 | 4 (≈ 1.44 µg/mL) | 4 (≈ 1.44 µg/mL) | EC50 (non-growing UPEC CFT073; E. coli, LPM pH 5.5, regrowth delay of non-growing bacteria, 24 h treatment, OD600 6 h after 2500-fold dilution, read-out: EC50): 21.5 µM
C[C@H]1NCc2cc(-c3ccc4c(=O)c(C(=O)O)cn(C5CC5)c4c3OC(F)F)ccc21 [Garenoxacin] | – | – | – | – | – | – | – | – | – | – | – | – | – | – | – | – | – | 2.19 | 4 (≈ 1.71 µg/mL) | 4 (≈ 1.71 µg/mL) | –
CC[C@H]1OC(=O)C[C@@H](O)[C@H](C)[C@@H](O[C@@H]2O[C@H](C)C[C@H](N(C)C)[C@H]2O)[C@@H](CC=O)C[C@@H](C)C(=O)/C=C/[C@]2(C)O[C@H]2[C@@H]1C [Rosamicin] | – | – | – | – | – | – | – | – | – | – | – | – | – | – | – | – | – | 0.858 | 100 (≈ 58.2 µg/mL) | > 100 | –
Plicamycin | 0.578 | 0.347 | 0.205 | 0.143 | 0.612 | 0.607 | 0.618 | 0.623 | 0.619 | 0.615 | 0.623 | 0.574 | 0.571 | 0.572 | 0.561 | 0.562 | 0.546 | – | – | – | EC50 [1]: 0.359 µM; Regrowth, OD600 at 6h or 8h after dilution into drug-free medium (average) (non-growing UPEC CFT073; [15]): 0.390; activity against non-growing UPEC in LPM (pH 5.5) compared to 1:4 CA-MHB (pH 7.4) (non-growing UPEC CFT073): potentiated by the low pH
